Measurements taken from patent US5250524A, “Bile acid derivatives, process for their preparation and use of these compounds as pharmaceuticals” (Hoechst Aktiengesellschaft, priority 1990, dated 1993).
Like-named read-outs stand apart in the source and are kept apart here.

Biological target: T1, Na^+ -dependent bile acid transport system (Oryctolagus cuniculus, UniProt Q28727)
T1 construct: Preparation of brush-border membrane vesicles from the ileum of rabbits; from tissue; host or cells: brush-border membrane vesicles from the terminal small intestine (ileum) of male New Zealand rabbits
T1 sequence (Q28727 1-347): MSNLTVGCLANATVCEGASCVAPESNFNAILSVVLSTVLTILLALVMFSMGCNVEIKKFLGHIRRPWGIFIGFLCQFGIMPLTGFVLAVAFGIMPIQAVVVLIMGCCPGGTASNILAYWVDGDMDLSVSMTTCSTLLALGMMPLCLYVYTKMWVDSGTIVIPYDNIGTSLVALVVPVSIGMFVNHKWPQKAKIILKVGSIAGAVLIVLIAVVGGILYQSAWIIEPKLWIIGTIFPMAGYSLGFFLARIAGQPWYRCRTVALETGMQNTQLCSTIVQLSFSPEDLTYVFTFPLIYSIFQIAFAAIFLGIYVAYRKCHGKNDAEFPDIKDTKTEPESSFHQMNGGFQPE
Experiment: Inhibition of Na^+ -dependent [^3 H]taurocholate absorption into brush-border membrane vesicles of the ileum
Type: biochemical, rabbit
Conditions: taurocholate 50 μM, pH 7.4, customarily 1 min
Experimental: The pharmacological data include a series of -tests in which the interaction of the compounds according to the invention with the intestinal bile acid transport system was investigated in the terminal small intestine:
1. Preparation of brush-border membrane vesicles from the ileum of rabbits
The preparation of brush-border membrane vesicles from the intestinal cells of the small intestine was carried out using the so-called Mg^2+ precipitation method. Male New Zealand rabbits (2-2.5 kg body weight) were sacrificed by intravenous injection of 0.5 ml of an aqueous solution of 2.5 mg of tetracaine HCl, 100 T 61® and 25 mg of mebezonium iodide. The small intestine was removed and rinsed with ice-cold physiological saline solution. The terminal […] of the small intestine (measured in the oral-rectal direction, i.e. the terminall ileum, which contains the active Na^+ -dependent bile acid transport system) were used for preparation of the brush-border membrane vesicles. The intestines were frozen at -80° C. under nitrogen in plastic bags. The frozen intestines were thawed in a water bath at 30° C. in order to prepare the membrane vesicles. The mucosa was scraped off and suspended in 60 ml of ice-cold 12 mM trio/HCl buffer (pH 7.1)/300 mM mannitol, 5 mM EGTA/10 mg/l of phenylmethylsulfonyl fluoride/1 mg/1 of soybean trypsin inhibitor (32 U/mg)/0.5 mg/l of bovine lung trypsin inhibitor (193 U/mg)/0.5 mg/l of bacitracin. After diluting to 300 ml with ice-cold distilled water, the suspension was homogenized with ice-cooling for 3 minutes at 75% of maximum power using an Ultraturrax (18 rod, IKA Werk Staufen, Federal Republic of Germany). After addition of 3 ml of 1M MgCl2 solution (final Concentration 10 mM), the homogenate was allowed to stand at 0° C. for exactly 1 minute. As a result of addition of Mg^2+, the cell membranes aggregate and precipitate with the exception of the brush-border membranes. After centrifugation at 3,000×g (5,000 rpm, SS-34 rotor) for 15 minutes, the precipitate is discarded and the supernatant which contains the brush-border membranes is centrifuged at 26,700×g (15,000 rpm, SS-34 rotor) for 30 minutes. The supernatant was discarded, and the precipitate was rehomogenized in 60 ml of 12 mM tris/HCl buffer (pH 7.1)/60 mM mannitol, 5 mM EGTA using a Potter Elvejhem homogenizer (Braun Melsungen, 900 rpm, 10 strokes). After addition of 0.1 ml of 1M MgCl2 solution and an incubation time of 15 minutes at 0° C., the mixture was again centrifuged at 3,000×g for 15 minutes. The supernatant was then again centrifuged at […] ( 15,000 rpm, SS-34 rotor) for 30 minutes. The precipitate was taken up in 30 ml of 10 mM tris/hepes buffer (pH 7.4) /300 mM mannitol and homogeneously resuspended by 20 strokes in a Potter Elvejhem homogenizer at 1,000 rpm. After centrifugation at 48,000×g (20,000 rpm, SS-34 rotor) for 30 minutes, the precipitate was taken up in 0.5 to 2 ml of tris/hepes buffer (pH 7.4)/280 mM mannitol (final concentration 20 mg/ml) and resuspended with the aid of a tuberculin syringe using a 27 gauge needle. The vesicles were either used immediately after preparation for transport investigations or stored at -196° C. in liquid nitrogen in 4 mg portions.
2. Inhibition of Na^+ -dependent [^3 H]taurocholate absorption into brush-border membrane vesicles of the ileum
The absorption of substrates into brush-border membrane vesicles was determined by means of the so-called membrane filtration technique. 10 μl of the vesicle suspension (100 μg of protein) were pipetted on the wall of a polystyrene incubation tube (11×70 mm) as a drop which contained the incubation medium together with the corresponding ligands (90 μl). […]

[1] = Na^+ -dependent transport component (difference between absorption in Na-T-B and K-T-B), read-out: IC50 Na
[2] = [^3 H]taurocholate absorption, rabbit ileum brush-border membrane vesicles, read-out: IC50
[3] = IC50, [^3 H]taurocholate absorption, rabbit ileum brush-border membrane vesicles
[4] = IC50 Na, Na^+ -dependent transport component (difference between absorption in Na-T-B and K-T-B)

Row | SMILES | IC50 [1] | IC50 [2] | IC50 [3] | IC50 [4]
1 | C[C@H](CCC(=O)NCCO[C@H]1CC[C@@]2(C)[C@@H](C1)C[C@@H](O)[C@@H]1[C@@H]2C[C@H](O)[C@]2(C)[C@@H]([C@H](C)CCC(=O)O)CC[C@@H]12)[C@H]1CC[C@H]2[C@@H]3[C@H](O)C[C@@H]4C[C@H](O)CC[C@]4(C)[C@H]3C[C@H](O)[C@]12C [Example 368] | 18 µM | 45 µM | – | –
2 | C[C@H](CCC(=O)O)[C@H]1CC[C@H]2[C@@H]3[C@H](O)C[C@@H]4C[C@@H](OCCNC(=O)CCC(=O)NCCCNC(=O)CC[C@@H](C)[C@H]5CC[C@H]6[C@@H]7[C@H](O)C[C@@H]8C[C@H](OC(c9ccccc9)c9ccccc9)CC[C@]8(C)[C@H]7C[C@H](O)[C@]56C)CC[C@]4(C)[C@H]3C[C@H](O)[C@]12C [Example 170] | 14 µM | 25 µM | – | –
3 | C[C@H](CCC(=O)O)[C@H]1CC[C@H]2[C@@H]3[C@H](O)C[C@@H]4C[C@@H](OCCNC(=O)CCC(=O)NCCO[C@H]5CC[C@@]6(C)[C@@H](C5)C[C@@H](O)[C@@H]5[C@@H]6C[C@H](O)[C@]6(C)[C@@H]([C@H](C)CCC(=O)O)CC[C@@H]56)CC[C@]4(C)[C@H]3C[C@H](O)[C@]12C [Example 532] | 10 µM | 30 µM | – | –
4 | C[C@H](CCC(=O)NCCS(=O)(=O)O)[C@H]1CC[C@H]2[C@@H]3[C@H](O)C[C@@H]4C[C@@H](OCCNC(=O)CCC(=O)NCCCNC(=O)CC[C@@H](C)[C@H]5CC[C@H]6[C@@H]7[C@H](O)C[C@@H]8C[C@H](OCc9ccccc9)CC[C@]8(C)[C@H]7C[C@H](O)[C@]56C)CC[C@]4(C)[C@H]3CC[C@]12C [191 (taurine conj.)] | – | – | 18 µM | 14 µM
5 | C[C@H](CCC(=O)NCCCNC(=O)CCC(=O)NCCO[C@H]1CC[C@@]2(C)[C@@H](C1)C[C@@H](O)[C@@H]1[C@@H]2C[C@H](O)[C@]2(C)[C@@H]([C@H](C)CCC(=O)NCCS(=O)(=O)O)CC[C@@H]12)[C@H]1CC[C@H]2[C@@H]3[C@H](O)C[C@@H]4C[C@H](OCc5ccccc5)CC[C@]4(C)[C@H]3C[C@H](O)[C@]12C [172 (taurine conj.)] | – | – | 32 µM | 20 µM
6 | C[C@H](CCC(=O)O)[C@H]1CC[C@H]2[C@@H]3[C@H](O)C[C@@H]4C[C@@H](OCCNC(=O)CCC(=O)NCCCNC(=O)CC[C@@H](C)[C@H]5CC[C@H]6[C@@H]7[C@H](O)C[C@@H]8C[C@H](OCc9ccccc9)CC[C@]8(C)[C@H]7C[C@H](O)[C@]56C)CC[C@]4(C)[C@H]3CC[C@]12C [Example 191] | 29 µM | 58 µM | – | –
7 | C[C@H](CCC(=O)NCCO[C@H]1CC[C@@]2(C)[C@@H](C1)C[C@@H](O)[C@@H]1[C@@H]2C[C@H](O)[C@]2(C)[C@@H]([C@H](C)CCC(=O)NCC(=O)O)CC[C@@H]12)[C@H]1CC[C@H]2[C@@H]3[C@H](O)C[C@@H]4C[C@H](O)CC[C@]4(C)[C@H]3C[C@H](O)[C@]12C [368 (glycine conj.)] | – | – | 48 µM | 16 µM
8 | C[C@H](CCC(=O)NCCO[C@H]1CC[C@@]2(C)[C@@H](C1)C[C@@H](O)[C@@H]1[C@@H]2C[C@H](O)[C@]2(C)[C@@H]([C@H](C)CCC(=O)NCCS(=O)(=O)O)CC[C@@H]12)[C@H]1CC[C@H]2[C@@H]3[C@H](O)C[C@@H]4C[C@H](OCc5ccccc5)CC[C@]4(C)[C@H]3C[C@H](O)[C@]12C [369 (taurine conj.)] | – | – | 50 µM | 18 µM
9 | C[C@H](CCC(=O)NCC(=O)O)[C@H]1CC[C@H]2[C@@H]3[C@H](O)C[C@@H]4C[C@@H](OCCNC(=O)CCC(=O)NCCCNC(=O)CC[C@@H](C)[C@H]5CC[C@H]6[C@@H]7[C@H](O)C[C@@H]8C[C@H](OCc9ccccc9)CC[C@]8(C)[C@H]7C[C@H](O)[C@]56C)CC[C@]4(C)[C@H]3CC[C@]12C [191 (glycine conj.)] | – | – | 27 µM | 18 µM
10 | C[C@H](CCC(=O)NCC(=O)O)[C@H]1CC[C@H]2[C@@H]3[C@H](O)C[C@@H]4C[C@@H](OCCNC(=O)CCC(=O)NCCCNC(=O)CC[C@@H](C)[C@H]5CC[C@H]6[C@@H]7[C@H](O)C[C@@H]8C[C@H](OC(c9ccccc9)c9ccccc9)CC[C@]8(C)[C@H]7C[C@H](O)[C@]56C)CC[C@]4(C)[C@H]3C[C@H](O)[C@]12C [Example 528] | 16 µM | 26 µM | – | –
11 | COC(=O)CC[C@@H](C)[C@H]1CC[C@H]2[C@@H]3[C@H](O)C[C@@H]4C[C@@H](OCCNC(=O)CCC(=O)NCCO[C@H]5CC[C@@]6(C)[C@@H](C5)C[C@@H](O)[C@@H]5[C@@H]6C[C@H](O)[C@]6(C)[C@@H]([C@H](C)CCC(=O)OC)CC[C@@H]56)CC[C@]4(C)[C@H]3C[C@H](O)[C@]12C [Example 531] | 18 µM | > 50 µM | – | –
12 | C[C@H](CCC(=O)NCCS(=O)(=O)O)[C@H]1CC[C@H]2[C@@H]3[C@H](O)C[C@@H]4C[C@@H](OCCNC(=O)CCC(=O)NCCCNC(=O)CC[C@@H](C)[C@H]5CC[C@H]6[C@@H]7[C@H](O)C[C@@H]8C[C@H](OC(c9ccccc9)c9ccccc9)CC[C@]8(C)[C@H]7C[C@H](O)[C@]56C)CC[C@]4(C)[C@H]3C[C@H](O)[C@]12C [Example 527] | 10 µM | 20 µM | – | –
13 | C[C@H](CCC(=O)NCCO[C@H]1CC[C@@]2(C)[C@@H](C1)C[C@@H](O)[C@@H]1[C@@H]2C[C@H](O)[C@]2(C)[C@@H]([C@H](C)CCC(=O)O)CC[C@@H]12)[C@H]1CC[C@H]2[C@@H]3[C@H](O)C[C@@H]4C[C@H](OCc5ccccc5)CC[C@]4(C)[C@H]3C[C@H](O)[C@]12C [Example 369] | 20 µM | 55 µM | – | –
